Laboratory results: paper PMC9450956 (Science translational medicine, 2021)

Experiments:
[1] = Oral and intravenous PK of suspension; type: in vivo, rodents; details: administered as a suspension
[2] = Intraperitoneal PK, plasma and brain; type: in vivo, NOD/SCID mice; details: intraperitoneal injection 20 mg/kg, mice
cellular CAPRIN1 = biological target: T1, cellular CAPRIN1 (Homo sapiens, UniProt Q14444); test: HB007-biotin pull-down competition with cell lysates, immunoblot; type: binding; details: free compound added to cell lysates
T1 sequence (Q14444 1-709): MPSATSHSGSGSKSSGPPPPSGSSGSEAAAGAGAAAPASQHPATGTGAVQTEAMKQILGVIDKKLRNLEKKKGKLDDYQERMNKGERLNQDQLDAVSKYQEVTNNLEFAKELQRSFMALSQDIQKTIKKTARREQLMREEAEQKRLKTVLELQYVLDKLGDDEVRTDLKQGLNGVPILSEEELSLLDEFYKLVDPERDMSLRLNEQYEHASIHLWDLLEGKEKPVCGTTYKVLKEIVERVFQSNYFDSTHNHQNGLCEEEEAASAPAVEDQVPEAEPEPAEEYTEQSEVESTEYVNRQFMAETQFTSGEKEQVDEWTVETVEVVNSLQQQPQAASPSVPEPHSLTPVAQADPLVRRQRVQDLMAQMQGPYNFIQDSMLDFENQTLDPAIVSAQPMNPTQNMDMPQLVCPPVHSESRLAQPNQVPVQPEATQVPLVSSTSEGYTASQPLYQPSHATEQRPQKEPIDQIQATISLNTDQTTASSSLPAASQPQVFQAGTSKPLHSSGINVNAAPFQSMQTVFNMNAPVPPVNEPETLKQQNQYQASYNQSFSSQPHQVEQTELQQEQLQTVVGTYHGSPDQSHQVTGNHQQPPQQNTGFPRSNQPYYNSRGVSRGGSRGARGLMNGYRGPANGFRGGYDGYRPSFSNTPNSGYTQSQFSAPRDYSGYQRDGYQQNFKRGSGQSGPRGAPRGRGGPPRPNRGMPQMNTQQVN

[3] = system: kinases, ion channels, NHRs, enzymes; test: LeadProfilingScreen selectivity profiling; type: binding, human; details: 10 μM
[4] = system: NSCLC A549 and colon cancer HCT116 xenografts; test: Cancer cell line-derived subcutaneous xenografts; type: in vivo, mice; details: intraperitoneal, once per day for 14 days
[5] = system: matched normal lung, colon, breast and brain cells; test: Cell viability, matched normal cells; type: cell-based, human; details: compared to cancer cell lines
[6] = system: cytochrome P450s (2C9, 2D6, and 3A4); test: CYP inhibition in human liver microsomes; type: in vitro ADME; details: 10 μM
SUMO1 [7] = test: Western blots for SUMO1 in normal lung epithelial cells; type: cell-based, human; details: 72 hours; compared to lung cancer cells
[8] = biological target: human ether-a-go-go–related gene (Homo sapiens, UniProt Q12809); test: LeadProfilingScreen selectivity profiling; type: binding; details: 10 μM
cancer cells = test: Caspase-3/7 activation and caspase-3 cleavage; type: cell-based, human; details: caspase-3 cleavage
Microsomal stability [9] = type: in vitro ADME, mouse; details: 1 μM, 45 min, LC-MS
SUMO1 [10] = test: Western and dot blots for SUMO1 in HCT116 cells; type: cell-based, human; details: gradually over about 24 hours
histamine H2 = histamine H2 (Homo sapiens, UniProt P25021); test: LeadProfilingScreen selectivity profiling; type: binding; details: 10 μM
[11] = system: human colon, breast carcinoma, and NSCLC PDXs; test: Cancer PDX mouse models, tumor progression and survival; type: in vivo, mice; details: for progression of PDXs: intraperitoneal, once per day for 14 days
[12] = Oral PK of solution formulation; type: in vivo; details: rat
SUMO1 [13] = test: SUMO1 target engagement in colon cancer PDX mice; type: in vivo; details: intraperitoneal once per day for 3 days, dose-dependent
[14] = biological target: 5-hydroxytryptamine receptor 2B (5-HT2B) (Homo sapiens, UniProt P41595); test: LeadProfilingScreen selectivity profiling; type: binding; details: 10 μM
Microsomal stability [15] = type: in vitro ADME, human; details: 1 μM, 45 min, LC-MS
adenosine A2A = adenosine A2A (Homo sapiens, UniProt P29274); test: LeadProfilingScreen selectivity profiling; type: binding; details: 10 μM
SUMO1 mRNA = SUMO1 mRNA expression in LN229 cells; type: cell-based, human; details: LN229 cancer cells
[16] = system: SUMO1-CDK6, SUMO1-RanGAP1, and SUMO3-RanGAP1 conjugation; test: In vitro sumoylation assay; type: biochemical; details: CDK6 and RanGap1 as substrates
SUMO1 [17] = test: Western and dot blots for SUMO1 in LN229 cells; type: cell-based, human; details: 72 hours
[18] = system: LN229-derived brain xenografts; test: LN229-derived intracranial brain xenografts, survival; type: in vivo, mice; details: intraperitoneal, once per day for 14 days; Kaplan-Meier

adenosine A2A, sequence (P29274 whole entry): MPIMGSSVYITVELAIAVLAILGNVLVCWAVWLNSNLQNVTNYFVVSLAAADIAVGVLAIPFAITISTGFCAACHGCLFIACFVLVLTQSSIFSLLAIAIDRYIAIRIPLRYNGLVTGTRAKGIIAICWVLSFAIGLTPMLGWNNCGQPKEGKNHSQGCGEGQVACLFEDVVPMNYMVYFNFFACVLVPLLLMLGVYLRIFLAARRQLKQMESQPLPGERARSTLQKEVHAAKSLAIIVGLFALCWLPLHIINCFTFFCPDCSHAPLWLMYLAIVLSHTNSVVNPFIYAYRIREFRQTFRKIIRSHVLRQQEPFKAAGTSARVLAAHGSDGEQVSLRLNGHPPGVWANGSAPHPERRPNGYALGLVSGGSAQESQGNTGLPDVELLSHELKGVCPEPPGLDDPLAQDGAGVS
human ether-a-go-go–related gene, sequence (Q12809 whole entry): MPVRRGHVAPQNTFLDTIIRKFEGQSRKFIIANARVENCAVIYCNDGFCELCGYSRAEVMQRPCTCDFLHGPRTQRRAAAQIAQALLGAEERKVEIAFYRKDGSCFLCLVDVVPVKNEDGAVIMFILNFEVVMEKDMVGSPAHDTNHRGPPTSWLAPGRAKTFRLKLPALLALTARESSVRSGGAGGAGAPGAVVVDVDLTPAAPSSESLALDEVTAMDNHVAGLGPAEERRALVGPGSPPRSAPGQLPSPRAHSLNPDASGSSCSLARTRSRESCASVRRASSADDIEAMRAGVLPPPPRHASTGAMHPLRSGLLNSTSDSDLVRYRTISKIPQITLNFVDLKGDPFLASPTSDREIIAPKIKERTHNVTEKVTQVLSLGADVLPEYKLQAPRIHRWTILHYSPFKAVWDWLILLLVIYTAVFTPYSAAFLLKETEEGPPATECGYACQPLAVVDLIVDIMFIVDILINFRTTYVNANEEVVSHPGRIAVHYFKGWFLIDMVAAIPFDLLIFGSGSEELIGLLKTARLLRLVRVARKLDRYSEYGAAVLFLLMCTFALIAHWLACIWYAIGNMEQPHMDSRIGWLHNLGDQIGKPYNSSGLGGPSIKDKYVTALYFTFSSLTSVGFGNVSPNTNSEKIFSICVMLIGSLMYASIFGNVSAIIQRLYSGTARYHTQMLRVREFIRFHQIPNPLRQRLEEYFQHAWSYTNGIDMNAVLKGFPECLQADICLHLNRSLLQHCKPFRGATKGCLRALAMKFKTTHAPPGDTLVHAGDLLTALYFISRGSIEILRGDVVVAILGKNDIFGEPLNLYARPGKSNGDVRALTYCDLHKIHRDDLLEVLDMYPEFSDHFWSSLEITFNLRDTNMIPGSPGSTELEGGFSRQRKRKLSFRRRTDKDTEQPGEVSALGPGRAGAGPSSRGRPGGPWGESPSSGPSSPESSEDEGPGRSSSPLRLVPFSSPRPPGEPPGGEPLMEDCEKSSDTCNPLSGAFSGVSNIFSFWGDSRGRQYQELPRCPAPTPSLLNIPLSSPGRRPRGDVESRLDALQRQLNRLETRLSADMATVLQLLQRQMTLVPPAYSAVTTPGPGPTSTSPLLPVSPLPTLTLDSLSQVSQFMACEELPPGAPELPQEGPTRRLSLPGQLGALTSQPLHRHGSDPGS
5-hydroxytryptamine receptor 2B (5-HT2B), sequence (P41595 whole entry): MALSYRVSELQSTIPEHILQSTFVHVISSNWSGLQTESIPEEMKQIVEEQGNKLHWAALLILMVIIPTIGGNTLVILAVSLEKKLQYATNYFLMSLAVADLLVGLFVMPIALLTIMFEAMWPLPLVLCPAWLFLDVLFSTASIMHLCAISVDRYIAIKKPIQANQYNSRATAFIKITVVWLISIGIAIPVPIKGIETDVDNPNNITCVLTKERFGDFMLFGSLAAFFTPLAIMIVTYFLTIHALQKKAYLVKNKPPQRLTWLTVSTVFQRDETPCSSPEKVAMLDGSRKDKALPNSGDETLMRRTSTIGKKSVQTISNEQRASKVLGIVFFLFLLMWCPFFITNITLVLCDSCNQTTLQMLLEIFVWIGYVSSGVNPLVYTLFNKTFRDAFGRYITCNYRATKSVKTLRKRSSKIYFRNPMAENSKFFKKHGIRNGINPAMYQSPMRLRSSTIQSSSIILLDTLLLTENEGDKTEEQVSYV
histamine H2, sequence (P25021 whole entry): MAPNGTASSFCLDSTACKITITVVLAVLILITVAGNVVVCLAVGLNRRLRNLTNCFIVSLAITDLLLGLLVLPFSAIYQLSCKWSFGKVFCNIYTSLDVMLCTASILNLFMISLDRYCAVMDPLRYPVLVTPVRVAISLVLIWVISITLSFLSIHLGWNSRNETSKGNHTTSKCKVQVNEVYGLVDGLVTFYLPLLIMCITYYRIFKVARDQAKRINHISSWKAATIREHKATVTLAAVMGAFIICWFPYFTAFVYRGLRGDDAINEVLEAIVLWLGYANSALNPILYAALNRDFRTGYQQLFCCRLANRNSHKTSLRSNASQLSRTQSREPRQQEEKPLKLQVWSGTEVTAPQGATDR

For `N#Cc1ccc2nc(NC(=O)Nc3cccc(Cl)c3)sc2c1` [HB007], the “plasma concentrations after oral and intravenous administration” value [1] was “low plasma concentrations”, the brain-to-plasma partition coefficient [2] was 0.57 and the “competitive inhibition of binding of cellular CAPRIN1 to HB007-linked biotin” value (shortened to “competitive inhibition”) (cellular CAPRIN1) was “competitively blocked”. For the same molecule, the “activity against kinases, ion channels, NHRs, enzymes” value [3] was “no activity”, the xenograft growth [4] was “suppressed xenograft growth” and the “growth inhibition of matched normal cells” value [5] was “much lower growth inhibition effects”. The “inhibition of CYP enzymes” value [6] was “did not inhibit”, the “effect on conjugated and total SUMO1 in normal lung epithelial cells” value (SUMO1 [7]) was “no effects” and the “activity against human ether-a-go-go–related gene” value [8] was “no activity”. For the same molecule, the “induction of apoptotic cell death” value (cancer cells) was “did not induce apoptotic cell death”, the “metabolic stability in mouse liver microsomes” value (Microsomal stability [9]) was “sufficiently stable” and the “effect on SUMO1 and SUMO2/3 protein amounts” value (SUMO1 [10]) was “reduced the conjugated and total amounts of SUMO1 but not SUMO2/3 protein”. For the same molecule, the “inhibition of histamine H2” value (histamine H2) was “some inhibition”, the “survival of PDX mice” value ([11]; BRCA1 mutant breast carcinoma and primary or metastatic colon carcinoma PDX) was “increased the survival” and the “progression of PDXs” value [11] was “effectively suppressed the progression”. The “oral bioavailability in plasma” value [12] was “up to 82%”, the “effect on SUMO1 protein in xenograft tissues” value (SUMO1 [13]) was “markedly reduced both the total amounts and conjugate SUMO1 but not SUMO2/3 protein” and the “inhibition of 5-HT2B” value [14] was “some inhibition”. The “metabolic stability in human liver microsomes” value (Microsomal stability [15]) was “sufficiently stable” and the “inhibition of adenosine A2A” value (adenosine A2A) was “some inhibition”.

With `O=C(Nc1ccc(Cl)c([N+](=O)[O-])c1)Nc1nc2ccccc2s1` [CPD1, 1-(1,3-benzothiazol-2-yl)-3-(4-chloro-3-nitrophenyl)urea] the “effect on SUMO1 mRNA expression” value (SUMO1 mRNA) was “no effects”, the xenograft growth [4] was “suppressed xenograft growth” and the “effect on in vitro SUMO conjugation” value [16] was “no effects”. The “effect on SUMO1 and SUMO2/3 protein amounts” value (SUMO1 [17]) was “reduced the conjugated and unconjugated forms and total amounts of SUMO1 but not SUMO2/3 protein”, the “survival of brain xenograft-bearing mice” value [18] was “increased the survival” and the “progression of PDXs” value [11] was “effectively suppressed the progression”. For the same molecule, the “effect on SUMO1 protein in xenograft tissues” value (SUMO1 [13]) was “markedly reduced both the total amounts and conjugate SUMO1 but not SUMO2/3 protein”.

For `O=[N+]([O-])c1cccc2nc(Nc3ccc(Cl)cc3)sc12` [compound 11208948, reference compound], the “competitive inhibition” value (cellular CAPRIN1) was “failed to competitively inhibit”.

In the case of `O=C(Nc1ccc(Cl)cc1)Nc1nc2ccccc2s1` [compound 789482, reference compound], the “competitive inhibition” value (cellular CAPRIN1) is reported as “failed to competitively inhibit”.
